Results as given in paper PMC3961306, “Comparison of the Cancer Gene Targeting and Biochemical Selectivities of All Targeted Kinase Inhibitors Approved for Clinical Use” (PLoS ONE, 2014).

Tests used:
Test in all cases: Kinase profiling in a biochemical assay panel (mobility shift assays and ELISA), %-inhibition at 1 μM; selectivity entropy
[1] = molecular target: T1, panel of more than 300 wild-type and mutant kinases (313 kinase panel) (Homo sapiens, UniProt P46734)
T1 sequence (P46734 1-347): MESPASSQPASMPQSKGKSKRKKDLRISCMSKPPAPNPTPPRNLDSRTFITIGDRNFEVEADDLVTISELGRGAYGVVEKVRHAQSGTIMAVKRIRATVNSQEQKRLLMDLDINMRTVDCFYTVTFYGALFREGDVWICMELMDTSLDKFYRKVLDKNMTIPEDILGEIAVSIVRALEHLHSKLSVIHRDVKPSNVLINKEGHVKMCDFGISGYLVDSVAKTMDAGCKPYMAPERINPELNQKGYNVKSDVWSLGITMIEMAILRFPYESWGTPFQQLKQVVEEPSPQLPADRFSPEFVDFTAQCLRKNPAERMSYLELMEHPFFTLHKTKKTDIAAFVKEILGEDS

[2] = molecular target: panel of more than 300 wild-type and mutant kinases (313 kinase panel) (Homo sapiens, UniProt O96017)
[3] = molecular target: T2, panel of more than 300 wild-type and mutant kinases (313 kinase panel) (Homo sapiens, UniProt Q9UHD2)
T2 sequence (Q9UHD2 1-729): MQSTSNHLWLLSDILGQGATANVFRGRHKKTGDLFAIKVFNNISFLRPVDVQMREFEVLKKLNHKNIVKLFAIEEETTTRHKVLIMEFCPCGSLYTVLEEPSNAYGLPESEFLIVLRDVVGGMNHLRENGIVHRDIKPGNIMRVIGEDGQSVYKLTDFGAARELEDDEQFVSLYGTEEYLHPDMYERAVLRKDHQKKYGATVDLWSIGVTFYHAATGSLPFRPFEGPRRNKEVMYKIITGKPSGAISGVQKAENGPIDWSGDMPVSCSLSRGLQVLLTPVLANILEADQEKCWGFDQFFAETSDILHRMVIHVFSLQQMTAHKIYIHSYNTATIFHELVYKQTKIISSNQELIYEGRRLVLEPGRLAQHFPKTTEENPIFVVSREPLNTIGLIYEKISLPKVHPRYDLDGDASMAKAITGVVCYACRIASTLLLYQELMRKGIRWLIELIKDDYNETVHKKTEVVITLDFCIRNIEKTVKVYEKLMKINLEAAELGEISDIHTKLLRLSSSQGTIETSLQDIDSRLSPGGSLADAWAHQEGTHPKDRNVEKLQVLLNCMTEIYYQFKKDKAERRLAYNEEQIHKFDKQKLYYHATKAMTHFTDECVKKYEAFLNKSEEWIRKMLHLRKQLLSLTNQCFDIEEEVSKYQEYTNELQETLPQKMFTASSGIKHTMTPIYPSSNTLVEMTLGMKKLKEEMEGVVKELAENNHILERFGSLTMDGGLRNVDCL

[4] = molecular target: panel of more than 300 wild-type and mutant kinases (313 kinase panel) (Homo sapiens, UniProt Q14680)
[5] = molecular target: T3, panel of more than 300 wild-type and mutant kinases (313 kinase panel) (Homo sapiens, UniProt Q96BR1)
T3 sequence (Q96BR1 1-496): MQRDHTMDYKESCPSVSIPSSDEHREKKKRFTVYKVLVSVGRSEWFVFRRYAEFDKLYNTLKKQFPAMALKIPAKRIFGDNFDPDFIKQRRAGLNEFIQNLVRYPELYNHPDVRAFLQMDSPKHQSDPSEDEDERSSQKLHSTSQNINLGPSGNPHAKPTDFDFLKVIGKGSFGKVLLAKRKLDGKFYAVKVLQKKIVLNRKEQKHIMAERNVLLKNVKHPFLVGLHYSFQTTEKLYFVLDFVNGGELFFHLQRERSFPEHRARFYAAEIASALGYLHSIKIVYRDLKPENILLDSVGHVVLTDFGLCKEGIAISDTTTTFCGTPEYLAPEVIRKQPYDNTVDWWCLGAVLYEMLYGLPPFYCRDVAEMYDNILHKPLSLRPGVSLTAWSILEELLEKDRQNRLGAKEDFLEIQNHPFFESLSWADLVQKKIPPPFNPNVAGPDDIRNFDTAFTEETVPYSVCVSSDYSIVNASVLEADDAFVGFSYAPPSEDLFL

[6] = molecular target: panel of more than 300 wild-type and mutant kinases (313 kinase panel) (Homo sapiens, UniProt Q15375)
[7] = molecular target: T4, panel of more than 300 wild-type and mutant kinases (313 kinase panel) (Homo sapiens, UniProt Q99759)
T4 sequence (Q99759 1-626): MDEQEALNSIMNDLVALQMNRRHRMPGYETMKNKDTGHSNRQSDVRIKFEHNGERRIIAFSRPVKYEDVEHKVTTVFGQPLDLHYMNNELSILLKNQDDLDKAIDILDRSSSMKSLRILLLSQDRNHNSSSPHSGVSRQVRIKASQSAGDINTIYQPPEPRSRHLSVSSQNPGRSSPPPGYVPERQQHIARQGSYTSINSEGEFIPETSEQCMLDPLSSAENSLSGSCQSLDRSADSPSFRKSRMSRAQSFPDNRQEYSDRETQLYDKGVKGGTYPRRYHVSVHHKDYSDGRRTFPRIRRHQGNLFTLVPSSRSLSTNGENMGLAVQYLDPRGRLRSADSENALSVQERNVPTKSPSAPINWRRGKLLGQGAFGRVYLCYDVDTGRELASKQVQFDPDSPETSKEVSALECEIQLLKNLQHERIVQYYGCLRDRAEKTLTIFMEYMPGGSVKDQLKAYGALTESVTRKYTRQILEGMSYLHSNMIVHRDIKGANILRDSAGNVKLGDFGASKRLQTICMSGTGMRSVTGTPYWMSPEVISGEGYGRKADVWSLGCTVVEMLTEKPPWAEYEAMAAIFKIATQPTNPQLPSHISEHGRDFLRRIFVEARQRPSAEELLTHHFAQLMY

[8] = kinase MAP2K3, compound at 1 μM
[9] = kinase MAP3K3, compound at 1 μM

Sequence of panel of more than 300 wild-type and mutant kinases (313 kinase panel) (Homo sapiens, UniProt Q15375) (Q15375 28-998, change not shown): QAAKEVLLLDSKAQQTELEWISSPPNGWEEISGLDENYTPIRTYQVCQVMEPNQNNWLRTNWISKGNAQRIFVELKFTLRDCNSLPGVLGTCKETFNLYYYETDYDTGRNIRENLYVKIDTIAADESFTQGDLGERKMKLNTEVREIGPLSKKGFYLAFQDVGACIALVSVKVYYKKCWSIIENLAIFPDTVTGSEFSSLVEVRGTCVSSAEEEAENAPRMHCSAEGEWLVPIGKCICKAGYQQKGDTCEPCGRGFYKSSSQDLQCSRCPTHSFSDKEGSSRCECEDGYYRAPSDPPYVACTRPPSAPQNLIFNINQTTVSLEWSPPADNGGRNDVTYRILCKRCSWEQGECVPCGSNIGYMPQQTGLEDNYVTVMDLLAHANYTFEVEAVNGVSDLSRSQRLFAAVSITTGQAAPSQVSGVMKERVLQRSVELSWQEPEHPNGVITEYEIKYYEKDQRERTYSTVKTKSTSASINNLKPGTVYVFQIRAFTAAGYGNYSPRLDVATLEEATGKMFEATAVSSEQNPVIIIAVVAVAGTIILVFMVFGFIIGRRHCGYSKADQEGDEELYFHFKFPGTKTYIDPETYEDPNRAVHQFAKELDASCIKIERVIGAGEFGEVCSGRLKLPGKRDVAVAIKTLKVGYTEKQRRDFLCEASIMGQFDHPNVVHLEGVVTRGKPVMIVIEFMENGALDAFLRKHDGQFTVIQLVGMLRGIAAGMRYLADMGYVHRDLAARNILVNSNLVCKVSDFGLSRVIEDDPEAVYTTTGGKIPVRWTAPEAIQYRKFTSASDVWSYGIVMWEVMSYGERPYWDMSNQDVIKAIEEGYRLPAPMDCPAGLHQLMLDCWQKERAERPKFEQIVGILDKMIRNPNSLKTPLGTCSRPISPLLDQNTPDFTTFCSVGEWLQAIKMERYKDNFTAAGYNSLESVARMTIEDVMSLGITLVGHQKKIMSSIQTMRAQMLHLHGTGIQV

Structure (SMILES) | %-inhibition of MAP2K3 [1, 8] | %-inhibition, CHK2 ([2]; kinase CHK2, 1 μM compound) | %-inhibition of TBK1 ([3]; kinase TBK1, 1 μM) | %-inhibition of MELK ([4]; kinase MELK, compound at 1 μM) | %-inhibition of SGK3 ([5]; kinase SGK3, 1 μM) | %-inhibition of EPHA7 ([6]; kinase EPHA7, compound at 1 μM) | %-inhibition of MAP3K3 [7, 9] | %-inhibition of MAP2K3 ([1]; 1 µM) | %-inhibition of EPHA7 ([6]; 1 µM) | %-inhibition of MAP3K3 ([7]; 1 µM) | %-inhibition, CHK2 ([2]; 1 µM) | %-inhibition of TBK1 ([3]; 1 µM) | %-inhibition of MELK ([4]; 1 µM) | %-inhibition of SGK3 ([5]; 1 µM)
C[C@@H](Oc1cc(-c2cnn(C3CCNCC3)c2)cnc1N)c1c(Cl)ccc(F)c1Cl [crizotinib] | 12% | 9% | 1.42% | 5.47% | -3% |  |  |  |  |  |  |  |  | 
CC(C)(C)c1nc(-c2cccc(NS(=O)(=O)c3c(F)cccc3F)c2F)c(-c2ccnc(N)n2)s1 [dabrafenib] | 11% | 7% | -1.15% | 82% | 0.0854% | 13% | 6% |  |  |  |  |  |  | 
COc1cc2c(Nc3ccc(Br)cc3F)ncnc2cc1OCC1CCN(C)CC1 [vandetanib] | 16% | 57% | 0.911% | 1.19% | -8% | 81% | 9% |  |  |  |  |  |  | 
O=S(=O)(c1cccc2cnccc12)N1CCCNCC1 [fasudil] | -4% | 4% | -5% | 25% | 7% | -5% | -14% |  |  |  |  |  |  | 
C#Cc1cccc(Nc2ncnc3cc(OCCOC)c(OCCOC)cc23)c1 [erlotinib] |  |  |  |  |  |  |  | 10% | 46% | 17% | 10% | 26% | 2.69% | 8%
COc1cc2nccc(Oc3ccc(NC(=O)C4(C(=O)Nc5ccc(F)cc5)CC4)cc3)c2cc1OC [cabozantinib] | 72% | 65% | -0.506% | 54% | -1.1% | 99% | 9% |  |  |  |  |  |  | 
Cc1ccc(C(=O)Nc2ccc(CN3CCN(C)CC3)c(C(F)(F)F)c2)cc1C#Cc1cnc2cccnn12 [ponatinib] |  |  |  |  | -1.1% |  | 88% |  |  |  |  |  |  | 
CCCS(=O)(=O)Nc1ccc(F)c(C(=O)c2c[nH]c3ncc(-c4ccc(Cl)cc4)cc23)c1F [vemurafenib] | 34% | 6.32% | -0.81% | 4% | -2.38% | -0.639% | 8% |  |  |  |  |  |  | 
CCN(CC)CCNC(=O)c1c(C)[nH]c(/C=C2\C(=O)Nc3ccc(F)cc32)c1C [sunitinib] |  |  | 56% | 95% |  |  | 76% |  |  |  |  |  |  | 
Cc1cn(-c2cc(NC(=O)c3ccc(C)c(Nc4nccc(-c5cccnc5)n4)c3)cc(C(F)(F)F)c2)cn1 [nilotinib] | 94% | -12% |  |  | 15% | 19% |  |  |  | -21% |  | 6% | 23% | 
CS(=O)(=O)CCNCc1ccc(-c2ccc3ncnc(Nc4ccc(OCc5cccc(F)c5)c(Cl)c4)c3c2)o1 [lapatinib] | 13% | 12% | -14% | -3.71% |  | 6.56% |  |  |  | 4.75% |  |  |  | 4.58%
CNC(=O)c1cc(Oc2ccc(NC(=O)Nc3ccc(Cl)c(C(F)(F)F)c3)c(F)c2)ccn1 [regorafenib] | 90% | -2.11% | -2.13% | -4.52% | -8% | 84% | 9% |  |  |  |  |  |  | 
Cc1nc(Nc2ncc(C(=O)Nc3c(C)cccc3Cl)s2)cc(N2CCN(CCO)CC2)n1 [dasatinib] | 35% |  |  |  | 1.18% |  | 88% |  |  |  |  |  |  | 
Cc1ccc(Nc2nccc(N(C)c3ccc4c(C)n(C)nc4c3)n2)cc1S(N)(=O)=O [pazopanib] | 47% | 5.7% | -2.68% | -0.665% | -3.17% | 12% | 77% |  |  |  |  |  |  | 
N#CC[C@H](C1CCCC1)n1cc(-c2ncnc3[nH]ccc23)cn1 [ruxolitinib] | 27% | 3.64% | 21% | 34% | -5% | 7.51% | 36% |  |  |  |  |  |  | 
CO[C@H]1C[C@@H]2CC[C@@H](C)[C@@](O)(O2)C(=O)C(=O)N2CCCC[C@H]2C(=O)O[C@H]([C@H](C)C[C@@H]2CC[C@@H](OCCO)[C@H](OC)C2)CC(=O)[C@H](C)/C=C(\C)[C@@H](O)[C@@H](OC)C(=O)[C@H](C)C[C@H](C)/C=C/C=C/C=C/1C [everolimus] | 10% | -37% | -5% | -3.33% | -6.4% | -4% | 3.6% |  |  |  |  |  |  | 
COc1cc(Nc2c(C#N)cnc3cc(OCCCN4CCN(C)CC4)c(OC)cc23)c(Cl)cc1Cl [bosutinib] |  |  | 32% |  | -7% |  | 91% | 34% |  |  |  |  |  | 
